Measurements as given in patent publication US20230233576A1, “ECLITASERTIB FOR USE IN TREATING CONDITIONS INVOLVING SYSTEMIC HYPERINFLAMMATORY RESPONSE” (priority 2020, published 2023).

System: adult participants hospitalized for severe COVID-19
Assay: Phase 1b severe COVID-19 study: adverse events and deaths
Format: in vivo, human
Description: Safety evaluation was based on adverse events (Aes) including serious adverse events (SAEs) and adverse events of special interest (AESIs) (i.e., pregnancy, symptomatic overdose with IMP. Alanine aminotransferase [ALT] increase, and anemia), and treatment-emergent adverse events (TEAEs) leading to treatment discontinuation.
The primary focus of AE reporting was on treatment emergent adverse events (TEAEs). Treatment emergent adverse events were Aes that were not present at baseline or represented the exacerbation of a pre-existing condition during the on-treatment period (treatment-emergent period), defined as the time from the first administration of the IMP up to and including the day of last dose of study drug plus 5 days.
All adverse events were coded to a “preferred term (PT)”, “high-level term (HLT)”, “high-level group term (HLGT)”, and associated primary SOC using Medical Dictionary for Regulatory Activities (MedDRA) version 23.1.
The number and cumulative incidence rate of deaths [%] during the on-study period were computed by treatment group: number of deaths divided by the number of participants. Kaplan-Meier plot for time to death was presented by treatment group.

[1] = 600 mg (N = 47), Safety population
[2] = 600 mg (N = 47), Safety population, corresponds to worsening of COVID-19
[3] = 600 mg, Safety population (N = 47)
[4] = 600 mg, Study day 0, Safety population
[5] = 600 mg, Study day 13, Safety population
[6] = 600 mg, Study day 15, Safety population
[7] = 600 mg, Study day 27, Safety population
[8] = 600 mg, Study day 28, Safety population
[9] = 600 mg, Study day 29, Safety population
[10] = 600 mg, Study day 30, Safety population
[11] = 600 mg, Study day 31, Safety population
[12] = 600 mg, Study day 33, Safety population
[13] = 600 mg, Study day 42, Safety population
[14] = 600 mg, Study day 60, Safety population
[15] = post-treatment period, 600 mg (N = 47), safety population
[16] = pre-treatment emergent adverse events, 600 mg group (N = 47), safety population

CN1C(=O)[C@@H](NC(=O)c2nnc(Cc3ccccc3)[nH]2)COc2cccnc21 [RIPK1 Inhibitor, (S)-5-benzyl-N-(5-methyl-4-oxo-2,3,4,5-tetrahydropyrido[3,2-b][1,4]oxazepin-3-yl)-4H-1,2,4-triazole-3-carboxamide]
TEAE, PT Pulmonary embolism: percentage of participants [1]: (2.1) %
TEAE, PT Pyrexia: number of participants [1]: 1
TEAE, PT Pyrexia: percentage of participants [1]: (2.1) %
TEAE, PT Renal cyst: number of participants [1]: 0
TEAE, PT Renal impairment: number of participants [1]: 0
TEAE, PT Respiratory disorder: number of participants [1]: 1
TEAE, PT Respiratory disorder: percentage of participants [1]: (2.1) %
TEAE, PT Respiratory failure: number of participants [1]: 0
TEAE, PT Subcutaneous emphysema: number of participants [1]: 0
TEAE, PT Tachycardia paroxysmal: number of participants [1]: 0
TEAE, PT Tracheitis: number of participants [1]: 0
TEAE, PT Tracheobronchitis: number of participants [1]: 0
TEAE, PT Transaminases increased: number of participants [1]: 0
TEAE, PT Venous thrombosis limb: number of participants [1]: 1
TEAE, PT Venous thrombosis limb: percentage of participants [1]: (2.1) %
TEAE, PT Vessel puncture site phlebitis: number of participants [1]: 1
TEAE, PT Vessel puncture site phlebitis: percentage of participants [1]: (2.1) %
TEAE, PT Vomiting: number of participants [1]: 0
TEAE, SOC BLOOD AND LYMPHATIC SYSTEM DISORDERS: number of participants [1]: 1
TEAE, SOC BLOOD AND LYMPHATIC SYSTEM DISORDERS: percentage of participants [1]: (2.1) %
TEAE, SOC CARDIAC DISORDERS: number of participants [1]: 0
TEAE, SOC GASTROINTESTINAL DISORDERS: number of participants [1]: 6
TEAE, SOC GASTROINTESTINAL DISORDERS: percentage of participants [1]: (12.8) %
TEAE, SOC GENERAL DISORDERS AND ADMINISTRATION SITE CONDITIONS: number of participants [1]: 6
TEAE, SOC GENERAL DISORDERS AND ADMINISTRATION SITE CONDITIONS: percentage of participants [1]: (12.8) %
TEAE, SOC HEPATOBILIARY DISORDERS: number of participants [1]: 0
TEAE, SOC IMMUNE SYSTEM DISORDERS: number of participants [1]: 1
TEAE, SOC IMMUNE SYSTEM DISORDERS: percentage of participants [1]: (2.1) %
TEAE, SOC INFECTIONS AND INFESTATIONS: number of participants [1]: 4
TEAE, SOC INFECTIONS AND INFESTATIONS: percentage of participants [1]: (8.5) %
TEAE, SOC INJURY, POISONING AND PROCEDURAL COMPLICATIONS: number of participants [1]: 1
TEAE, SOC INJURY, POISONING AND PROCEDURAL COMPLICATIONS: percentage of participants [1]: (2.1) %
TEAE, SOC INVESTIGATIONS: number of participants [1]: 6
TEAE, SOC INVESTIGATIONS: percentage of participants [1]: (12.8) %
TEAE, SOC METABOLISM AND NUTRITION DISORDERS: number of participants [1]: 3
TEAE, SOC METABOLISM AND NUTRITION DISORDERS: percentage of participants [1]: (6.4) %
TEAE, SOC MUSCULOSKELETAL AND CONNECTIVE TISSUE DISORDERS: number of participants [1]: 1
TEAE, SOC MUSCULOSKELETAL AND CONNECTIVE TISSUE DISORDERS: percentage of participants [1]: (2.1) %
TEAE, SOC NERVOUS SYSTEM DISORDERS: number of participants [1]: 0
TEAE, SOC PSYCHIATRIC DISORDERS: number of participants [1]: 1
TEAE, SOC PSYCHIATRIC DISORDERS: percentage of participants [1]: (2.1) %
TEAE, SOC RENAL AND URINARY DISORDERS: number of participants [1]: 0
TEAE, SOC REPRODUCTIVE SYSTEM AND BREAST DISORDERS: number of participants [1]: 0
TEAE, SOC RESPIRATORY, THORACIC AND M[…]: number of participants [1]: 4
TEAE, SOC RESPIRATORY, THORACIC AND M[…]: percentage of participants [1]: (8.5) %
TEAE, SOC SKIN AND SUBCUTANEOUS TISSUE DISORDERS: number of participants [1]: 0
TEAE, SOC VASCULAR DISORDERS: number of participants [1]: 3
TEAE, SOC VASCULAR DISORDERS: percentage of participants [1]: (6.4) %
TEAE, PT Condition aggravated: number of participants [2]: 4
TEAE, PT Condition aggravated: percentage of participants [2]: (8.5) %
deaths up to Day 28 [3]: 4.3%
number of AESIs [3]: 6 AESIs
number of TEAEs considered as IMP-related by the Investigator [3]: 2 TEAEs
number of TEAEs leading to treatment discontinuation [3]: 5 TEAEs
number of serious TEAEs [3]: 8 serious TEAEs
participants with AESI, PT Anaemia [3]: 0 n
participants with AESI, PT Transaminases increased [3]: 0 n
participants with AESI, SOC BLOOD AND LYMPHATIC SYSTEM DISORDERS [3]: 0 n
participants with post-treatment AE leading to death [3]: 1 participant
deaths up to Day 28 (600 mg, Safety population (N = 47), on Day 11 and Day 15): 2 participants
Cumulative incidence rate of deaths [4]: 0
Number of deaths [4]: 0
Cumulative incidence rate of deaths [5]: 0.02
Number of deaths [5]: 1
Cumulative incidence rate of deaths [6]: 0.04
Number of deaths [6]: 1
Cumulative incidence rate of deaths [7]: 0.04
Number of deaths [7]: 0
Cumulative incidence rate of deaths [8]: 0.04
Number of deaths [8]: 0
Cumulative incidence rate of deaths [9]: 0.04
Number of deaths [9]: 0
Cumulative incidence rate of deaths [10]: 0.04
Number of deaths [10]: 0
Cumulative incidence rate of deaths [11]: 0.04
Number of deaths [11]: 0
Cumulative incidence rate of deaths [12]: 0.04
Number of deaths [12]: 0
Cumulative incidence rate of deaths [13]: 0.04
Number of deaths [13]: 0
Cumulative incidence rate of deaths [14]: 0.04
Number of deaths [14]: 0
participants with post-treatment AESI of transaminase increase (600 mg, abnormal ALT and AST levels): One
participants with PCSAs of elevated glucose levels considered as a TEAE of hyperglycemia (600 mg, from an abnormal baseline): One
overall safety and tolerability as compared to placebo (daily doses over 15 days, severe COVID-19, with standard of care): generally safe and well tolerated
Participants with any post-treatment AE [15]: 6 (12.8) n (%)
Participants with any post-treatment AE leading to death [15]: 1 (2.1) n (%)
Participants with any post-treatment SAE [15]: 1 (2.1) n (%)
Participants with any post-treatment related to the compound [15]: 0 n (%)
Participants with severe post-treatment AE [15]: 1 (2.1) n (%)
Participants with any pre-treatment AE [16]: 2 (4.3) n (%)
Participants with any pre-treatment AE leading to death [16]: 0 n (%)
Participants with any pre-treatment SAE [16]: 1 (2.1) n (%)
Participants with severe pre-treatment AE [16]: 1 (2.1) n (%)
